Tests used:
Assay type in all cases: physicochemical
[1] = Influence of polymer/lipid composition of the matrix on release rate of the entrapped agent; details: FIG. 8
Protocol: The influence of different polymer/lipid compositions on the release rate of a given drug was measured using fluorescein entrapped within a matrix compositing PLGA (75:25), DPPC as the main phospholipid and varying amounts of lauric acid (LA) and phosphatidylethanolamine (PE) having saturated fatty acid moieties of at least 14 carbons. […] The release lasted between about 20 to about 110 days when LA:PE w/w % ratio was varied between 10:10 to 0:0 respectively (vs. the total mass of the formulation). The drug release profile from bone particles coated with matrix formulation comprising PE versus bone particles coated with matrix formulation comprising cholesterol was compared.
The fact that different polymer/lipid compositions influence the release rate can be used to fulfill different clinical needs. […] In contrast, when the antibiotic drug, DOX, was associated with a slow degrading polymer such as PLGA 85:15 and a 18:0 phospholipid such as DSPC, complete release of the drug was accomplished after more than 50 days (FIG. 8).

[2] = Release of drug from bone filler particles coated with the matrix composition following hydration; details: for kinetics of co-release from the surface of coated bone particles: surrounding medium 5% PBS at 37° C., FIG. 15; for period of constant release of DOX: bone filler particles (BioOss) coated with matrix PLGA 85:15, cholesterol, DSPC (18:0), with or without alpha-tocopherol
Protocol: • 50-75 KDa PLGA (poly (lactic-co-glycolic acid, 85:15 ratio)) • Cholesterol-50%-100% w/w vs. PLGA. The mixture is mixed. The entire process is performed at room temperature. A fat-polymer combination matrix is thus obtained. II. Preparation of Second Solution The following materials are mixed with a volatile organic solvent (methanol and ethyl acetate) • a. […] A phosphatidylcholine, —1,2-distearoyl-sn-glycero-3-phosphocholine (DSPC) present as 300-700% w/w vs. PLGA. The mixture is mixed well. The entire process is conducted at room temperature. When phosphatidylcholine having long saturated fatty chains is used (e.g. DSPC) the process is typically performed at higher temperatures of about 40-50° C. No water is required in the mixture. […] Stirring is continued for 1-5 minutes. The entire process is performed at a temperature of 20-50° C. depending of the lipid used. IV—Evaporation Following Surface Coating In order to coat bone filler particles, the particles are added to the mixture of stage III followed by evaporation of the volatile organic solvents. The entire process is performed at a temperature of 40-50° C. The ratio between the volume and the percentage of solids in the mixture of stage III and the mass of the bone particles will determine the release period of the drug post hydration of the coated particles. V—Vacuum Drying Coated bone particles are vacuum-dried for storage. […] The rate of sustained release of Doxycycline hyclate encapsulated within the matrix composition of the present invention was measured and compared to the release rate of the drug from bone particles socked with free DOX solution (having the same amount of DOX).
The release profile of DOX from a mixture of coated and non coated bone (xenografts bovine—commercial—BioOss) particles was measured. The coated particles were mixed with similar plain (not-coated) bone particles in a ratio of 1:4. […] The formulation in this study comprised PLGA 75:25 and DPPC.
The release of DOX from bone particles (12 mg/sample) coated with different mass of the DOX containing matrix formulation was compared. Following hydration (5% serum at 37° C.) the duration of release of 90% of the initial DOX amount in the formulation was monitored (FIG. 10).

[3] = Drug release from absorbable gelatin sponge containing the sustained release formulation (HPLC); details: 5% serum at 37° C.
Protocol: A solution containing PLGA—75:25, PC 16:0, cholesterol 10% and Doxycycline hyclate (DOX) 10% was injected into the center of the absorbable gelatin sponge foam cube (Gelatamp. ROEKO). The overall content of DOX in the injected formulation was 380 μg in 25 μl. The solvent was evaporated in a 37° C. incubator and subsequently over night under vacuum. As a control, the common use of pre-wetting with a similar dose of DOX (380 μg) solution was injected into the gelatin sponge tube. Following hydration (5% serum at 37° C.) the release of DOX from the gelatin sponge cube into the surrounding was detected and quantified by HPLC.

Compound: CC(C(=O)O)c1ccc(-c2ccccc2)c(F)c1 (stereo not shown) [NSAID, Flurbiprofen]
- time to full release of the drug ([1]; PLGA 50:50 and 14:0 phospholipid DMPC): ≤ 10 days

Compound: CCCCCCCCCCCCCCCC(=O)OC[C@H](COP(=O)([O-])OCC[N+](C)(C)C)OC(=O)CCCCCNc1ccc([N+](=O)[O-])c2nonc12 [NBD-PC, 1-palmitoyl-2-{6-[(7-nitro-2-1,3-benzoxadiazol-4-yl)amino]hexanoyl}-sn-glycero-3-phosphocholine]
- kinetics of co-release from the surface of coated bone particles [2]: zero order kinetics

Compound: Doxycycline hyclate
- time to complete release of the drug ([1]; PLGA 85:15 and 18:0 phospholipid DSPC): more than 50 days
- share of encapsulated DOX released following zero order kinetics ([2]; DOX encapsulated in the formulation, FIG. 2): ~70%
- period of constant release of DOX [2]: at least 3 weeks
- period of constant release of DOX ([2]; listed as Doxycycline hyclate): about three
- release kinetics ([2]; bone filler particles coated with matrix PLGA 85:15, cholesterol, DSPC, FIG. 2): zero order kinetics
- dependence of duration of release of 90% of DOX on formulation mass ([2]; bone particles 12 mg/sample coated with different mass of formulation, 5% serum at 37° C., FIG. 10): linearly depended on the formulation mass
- drug released in 3 hours after hydration ([2]; bone particles coated with PLGA 75:25 / DPPC formulation, mixed 1:4 with non-coated particles, 5% serum at 37° C.): about 15%
- release profile, matrix comprising PE (DMPE) versus matrix comprising cholesterol ([2]; coated bone particles, 5% serum at 37° C., FIG. 7): behaves similarly
- effect of presence of non-coated particles on release of DOX from the formulation ([2]; coated:non-coated bone particles 1:4, 5% serum at 37° C., PLGA 75:25 and DPPC): not affected
- kinetics of co-release from the surface of coated bone particles [2]: zero order kinetics
- drug released in 3 hours after hydration ([2]; uncoated bone particles soaked with free DOX (control), 5% serum at 37° C.): 88%
- DOX released immediately into the medium ([3]; control: gelatin sponge pre-wetted with DOX solution (380 μg)): total amount
- DOX released into the medium immediately after hydration ([3]; gelatin sponge (Gelatamp) with PLGA 75:25, PC 16:0, cholesterol 10%, DOX 10%, 380 μg DOX): about 40%
- period of gradual release of the rest of the drug ([3]; gelatin sponge with PLGA 75:25, PC 16:0, cholesterol 10%, DOX 10%): more than 7 days
